Values joined by “and” are separate entries in the source; they are usually repeats but may differ in a detail not shown here. Equal values may be shown once.
Columns and labels:
HT-29 (colon cancer) = experiment: Antiproliferative assay, HT-29; format: cell-based; conditions: Homo sapiens; HT-29 colon cancer cells; read-out: Antiproliferative activity IC50 ± SEM, HT-29
From the text: (§1) The dose–response experiments established the IC50 values for the new compounds. The given findings were obtained from at least two distinct studies, each comprising three repeats per concentration. Appendix A (SI File) provides experimental details.[38,39]
(§2) The MTT assay[43] was utilized to assess the antiproliferative effects of compounds 10a–l on four human cancer cell lines: HT-29 (colon cancer), Panc-1 (pancreatic cancer), A-549 (lung cancer), and MCF-7 (breast cancer). […]
(§3) 4.2.2. Assay for antiproliferative effect
(§4) To explore the antiproliferative potential of compounds propidium iodide fluorescence assay was performed using different cell lines such as Panc-1 (pancreas cancer cell line), MCF-7 (breast cancer cell line), HT-29 (colon cancer cell line) and A-549 (epithelial cancer cell line), respectively. To calculate the total nuclear DNA, a fluorescent dye (propidium iodide, PI) is used which can attach to the DNA, thus offering a quick and precise technique. PI cannot pass through the cell membrane and its signal intensity can be considered as directly proportional to quantity of cellular DNA. Cells whose cell membranes are damaged or have changed permeability are counted as dead ones. The assay was performed by seeding the cells of different cell lines at a density of 3000-7500 cells/well (in 200μl medium) in culture plates followed by incubation for 24h at 37 °C in humidified 5%CO2/95% air atmospheric conditions. The medium was removed; the compounds were added to the plates at 10 μM concentrations (in 0.1% DMSO) in triplicates, followed by incubation for 48h. DMSO (0.1%) was used as control. After incubation, medium was removed followed by the addition of PI (25 μl, 50μg/mL in water/medium) to each well of the plates. At - 80 °C, the plates were allowed to freeze for 24 h, followed by thawing at 25 °C. A fluorometer (Polar-Star BMG Tech) was used to record the readings at excitation and emission wavelengths of 530 and 620 nm for each well. The percentage cytotoxicity of compounds was calculated using […]
(§5) Where ATC= Absorbance of treated cells and AC= Absorbance of control. Erlotinib was used as positive control in the assay. […]

EGFR = EGFR (Homo sapiens, UniProt P00533); experiment: EGFR inhibitory assay (EGFR-TK test); conditions: for EGFR inhibitory potency relative to erlotinib: more potent than erlotinib
Chain of EGFR (P00533 669-1210): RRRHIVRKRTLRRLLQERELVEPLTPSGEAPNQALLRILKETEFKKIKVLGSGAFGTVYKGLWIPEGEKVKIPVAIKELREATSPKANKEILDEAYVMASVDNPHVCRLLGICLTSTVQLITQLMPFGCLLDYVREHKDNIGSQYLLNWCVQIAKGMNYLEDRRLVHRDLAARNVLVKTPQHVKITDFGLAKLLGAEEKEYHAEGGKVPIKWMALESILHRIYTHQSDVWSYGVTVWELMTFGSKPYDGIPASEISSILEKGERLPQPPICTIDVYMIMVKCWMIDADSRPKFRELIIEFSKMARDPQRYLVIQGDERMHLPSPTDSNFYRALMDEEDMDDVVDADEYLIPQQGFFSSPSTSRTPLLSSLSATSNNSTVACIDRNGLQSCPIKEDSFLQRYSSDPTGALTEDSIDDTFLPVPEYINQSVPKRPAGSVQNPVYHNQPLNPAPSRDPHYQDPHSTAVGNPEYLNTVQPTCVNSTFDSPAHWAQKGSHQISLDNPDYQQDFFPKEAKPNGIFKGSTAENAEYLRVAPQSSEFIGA
Experimental: Baculoviral expression vectors including pBlueBacHis2B and pFASTBacHTc were used
5ʹ upstream to the EGFR sequence comprised a sequence that encoded (His)6. Sf-9 cells were infected for 72h for protein expression. The pellets of Sf-9 cells were solubilized in a buffer containing sodium vanadate (100 μM), aprotinin (10 μg/mL), triton (1%), HEPES
buffer(50mM), ammonium molybdate (10 μM), benzamidine HCl (16 μg/mL), NaCl (10 mM),leupeptin (10 μg/mL) and pepstatin (10 μg/mL) at 0°C for 20 min at pH 7.4, followed by centrifugation for 20 min. To eliminate the nonspecifically bound material, a Ni-NTA super flow packed column was used to pass through and wash the crude extract supernatant first with 10mM and then with 100 mM imidazole. Histidine-linked proteins were first eluted with 250 and then with 500 mM imidazole subsequent to dialysis against NaCl (50 mM), HEPES (20 mM), glycerol (10%) and 1 μg/mL each of aprotinin, leupeptin and pepstatin for 120 min. The purification was performed either at 4 °C or on ice. To record autophosphorylation level, EGFR kinase assay was carried out on the basis of DELFIA/Time-Resolved Fluorometry. The compounds were first
dissolved in DMSO absolute, subsequent to dilution to appropriate concentration using HEPES
(25 mM) at pH 7.4. Each compound (10 μL) was incubated with recombinant enzyme (10 μL, 5
ng for EGFR, 1:80 dilution in 100 mM HEPES) for 10 min at 25 °C, subsequent to the addition of
5X buffer (10 μL, containing 2 mM MnCl2, 100 μM Na3VO4, 20 mM HEPES and 1 mM DTT)
and ATP-MgCl2 (20 μL, containing 0.1 mM ATP and 50 mM MgCl2) and incubation for 1h. The
negative and positive controls were included in each plate by the incubation of enzyme either with
or without ATP-MgCl2. The liquid was removed after incubation and the plates were washed
thrice using a wash buffer. The Europium-tagged antiphosphotyrosine antibody (75 μL, 400 ng)
was added to each well followed by incubation of 1h and then washing of the plates using buffer.
The enhancement solution was added to each well and the signal was recorded at excitation and
The autophosphorylation percentage inhibition by compounds was calculated using the following equation:
calculated. The majority of signals detected by antiphosphotyrosine antibody were from EGFR because the enzyme preparation contained low impurities.

caspase-8 = experiment: Caspase-8 activation assay in MCF-7 cells; format: cell-based, human; conditions: for Caspase-8 Fold change: vs untreated control
Experimental: (§6) Compounds10k and 10l were tested as caspases-3, 8, 9, Bax and p53 activators and as down-regulators of the anti-apoptotic protein Bcl2 against the MCF-7 breast cancer cell line.[41] Appendix A gives more details.
(§7) To elucidate the apoptotic processes of compounds 10k and 10l, whether via the intrinsic or extrinsic pathway, their impacts on caspase-8 and caspase-9 were evaluated. […] This signifies the activation of both intrinsic and extrinsic pathways (Table 5).
(§8) 4.2.6. Caspase-8/9 activation assay
(§9) Cells were obtained from American Type Culture Collection, cells were grown in RPMI 1640 containing 10% fetal bovine serum at 37°C, stimulated with the compounds to be tested for caspase 8/9, and lysed with Cell Extraction Buffer. This lysate was diluted in Standard Diluent Buffer over the range of the assay and measured for human active caspase-8/9 content. (Cells are Plated in a density of 1.2 – 1.8 × 10,000 cells/well in a volume of 100µl complete growth medium + 100 ul of the tested compound per well in a 96-well plate for 24 hours before the enzyme assay). The absorbance of each microwell was read on a spectro-photometer at 450 nm. […]

[1] = Cytotoxicity against normal cell line (MTT); format: cell-based, human; conditions: WI-38 normal human diploid cells; normal human diploid WI-38 cells, MTT
[2] = tested on: normal human diploid cell line (WI-38); experiment: Cytotoxicity against normal cell line (MTT); format: cell-based; conditions: for Selectivity index (SI), A-549: WI-38 vs A-549; for Selectivity index (SI), HT-29: WI-38 vs HT-29; for Selectivity index (SI), MCF-7: WI-38 vs MCF-7; for Selectivity index (SI), Panc-1: WI-38 vs Panc-1
p53 = p53 level assay in MCF-7 cells; format: cell-based, human
Experimental: as §6
P53's ability to eliminate superfluous, damaged, or contaminated cells by apoptosis is critical for the proper regulation of cell proliferation in multicellular organisms.[49] p53 is activated by both external and internal stress signals, allowing for nuclear accumulation in an active state. As a result, p53 induces either reversible cell growth arrest or apoptosis. The aforesaid activity is necessary for tumor suppression.[50]

[3] = tested on: four human cancer cell lines (A-549, MCF-7, Panc-1, HT-29); experiment: Antiproliferative assay, average over four cancer cell lines; format: cell-based; conditions: for GI50: Homo sapiens, average IC50 across A-549, MCF-7, Panc-1, HT-29
Experimental: The given findings were obtained from at least two distinct studies, each comprising three repeats per concentration. Appendix A (SI File) provides experimental details.[38,39] […]
as §3
To explore the antiproliferative potential of compounds propidium iodide fluorescence assay was performed using different cell lines such as Panc-1 (pancreas cancer cell line), MCF-7 (breast […]
respectively. To calculate the total nuclear DNA, a fluorescent dye (propidium iodide, PI) is used which can attach to the DNA, thus offering a quick and precise technique. PI cannot pass through the cell membrane and its signal intensity can be considered as directly proportional to quantity of cellular DNA. Cells whose cell membranes are damaged or have changed permeability are counted as dead ones. The assay was performed by seeding the cells of different cell lines at a density of 3000-7500 cells/well (in 200μl medium) in culture plates followed by incubation for 24h at 37 °C […]
The medium was removed; the compounds were added to the plates at 10 μM concentrations (in 0.1% DMSO) in triplicates, followed by incubation for 48h. DMSO (0.1%) was used as control. After incubation, medium was removed followed by the addition of PI (25 μl, 50μg/mL in water/medium) to each well of the plates. At - 80 °C, the plates were allowed to freeze for 24 h, followed by thawing at 25 °C. A fluorometer (Polar-Star BMG Tech) was used to record the readings at excitation and emission wavelengths of 530 and 620 nm for each well. The percentage cytotoxicity of compounds was calculated using […]
Where ATC= Absorbance of treated cells and AC= Absorbance of control. […]
positive control in the assay. […]

MCF-7 (breast cancer) = experiment: Antiproliferative assay, MCF-7; format: cell-based, human; conditions: for IC50: Homo sapiens, MCF7, MCF-7 breast cancer cells, read-out: Antiproliferative activity IC50 ± SEM, MCF-7
From the text: as §1, §2, §3, §4, §5

caspase-9 = experiment: Caspase-9 activation assay in MCF-7 cells; format: cell-based, human; conditions: for Caspase-9 Fold change: vs untreated control
Experimental: as §6, §7, §8, §9

caspase-3 = experiment: Caspase-3 activation assay in MCF-7 cells; format: cell-based, human; conditions: for Caspase-3 Fold change: vs untreated control
VEGFR-2 = VEGFR-2 (Homo sapiens, UniProt P35968); experiment: VEGFR-2 inhibitory assay
Chain of VEGFR-2 (P35968 20-1356): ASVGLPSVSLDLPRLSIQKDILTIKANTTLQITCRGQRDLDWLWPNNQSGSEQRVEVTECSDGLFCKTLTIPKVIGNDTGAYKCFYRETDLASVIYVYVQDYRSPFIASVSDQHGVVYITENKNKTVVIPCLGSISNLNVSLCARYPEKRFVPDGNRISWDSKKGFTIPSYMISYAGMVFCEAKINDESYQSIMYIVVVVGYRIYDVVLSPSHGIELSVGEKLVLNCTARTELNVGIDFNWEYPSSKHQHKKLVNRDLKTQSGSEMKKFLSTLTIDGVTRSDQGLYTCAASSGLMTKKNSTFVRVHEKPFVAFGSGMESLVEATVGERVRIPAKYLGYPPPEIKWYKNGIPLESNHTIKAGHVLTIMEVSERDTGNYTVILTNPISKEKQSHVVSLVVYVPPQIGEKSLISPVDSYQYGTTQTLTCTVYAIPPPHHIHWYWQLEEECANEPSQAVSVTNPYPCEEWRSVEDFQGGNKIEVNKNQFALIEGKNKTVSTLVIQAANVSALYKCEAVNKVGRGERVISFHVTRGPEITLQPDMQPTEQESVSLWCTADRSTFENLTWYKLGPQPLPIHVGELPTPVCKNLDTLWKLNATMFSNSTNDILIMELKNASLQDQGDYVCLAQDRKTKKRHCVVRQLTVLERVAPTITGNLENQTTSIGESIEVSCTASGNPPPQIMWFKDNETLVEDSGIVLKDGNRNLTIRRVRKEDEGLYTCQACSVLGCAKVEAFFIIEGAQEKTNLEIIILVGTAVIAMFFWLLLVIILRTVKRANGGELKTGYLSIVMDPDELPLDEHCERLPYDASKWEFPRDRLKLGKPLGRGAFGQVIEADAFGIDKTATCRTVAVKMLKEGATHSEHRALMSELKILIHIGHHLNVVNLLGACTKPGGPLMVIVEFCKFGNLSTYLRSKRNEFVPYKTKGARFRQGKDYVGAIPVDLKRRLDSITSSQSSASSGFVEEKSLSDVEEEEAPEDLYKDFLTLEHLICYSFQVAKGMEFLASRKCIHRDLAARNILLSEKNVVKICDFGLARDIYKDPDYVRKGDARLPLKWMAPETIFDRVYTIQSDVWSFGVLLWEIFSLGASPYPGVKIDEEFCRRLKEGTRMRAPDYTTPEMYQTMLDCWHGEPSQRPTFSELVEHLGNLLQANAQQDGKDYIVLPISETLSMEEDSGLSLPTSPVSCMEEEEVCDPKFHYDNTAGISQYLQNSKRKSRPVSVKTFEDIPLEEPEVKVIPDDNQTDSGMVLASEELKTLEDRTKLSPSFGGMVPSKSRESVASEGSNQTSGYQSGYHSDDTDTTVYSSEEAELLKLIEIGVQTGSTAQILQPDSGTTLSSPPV
Experimental: The majority of signals detected by antiphosphotyrosine antibody were from EGFR because the enzyme preparation contained low impurities.
Prepare all the solutions using autoclaved, deionized water and analytical grade reagents. Prepare
and store all the reagents at room temperature (unless indicated otherwise). EDTA solution (0.5
M, pH 8.0): add 95 mL ultra-pure water to 14.612 g EDTA, adjust the pH to 8.0 using NaOH
solution, add 5 mL ultra-pure water; 1×Kinase Assay Buffer: add 25 mL HEPES solution (1 M),
water, adjust pH to 7.5 and constant volume to 500 mL using ultrapure water; 4×Stop solution (40
mM): Mix 0.8 mL of the foregoing EDTA solution, 1 mL 10×Detection Buffer and 8.2 mL ultra-
pure water; 1×Detection Buffer: Mix 1 mL 10×Detection Buffer with 9 mL water; 4×VEGFR
μM) was added to 624 μL 1×Kinase Assay Buffer and mixed; 4×ULight™-labeled JAK1
concentration 5 μM) was added to 576 μL 1×Kinase Assay Buffer and mixed; 4×ATP Solution
2×substrate/ATP Mix: 560 μL foregoing 4×ULight™-labeled JAK1 and 560 μL 4×ATP solution
and mixed (prepared before use). The assays used an ULight-labeled peptide substrate and a
Europium-W1024-labeled antiphosphotyrosine antibody. The VEGFR-2 was purchased from
Carna Biosciences, Inc. (New York, USA). The 384-well plates were obtained from PerkinElmer.
Compounds were dissolved in DMSO and diluted to 11 concentrations at a tripling rate from 2.500
5 μL 2×VEGFR-2 kinase solution (0.5 nM)
was added to 384-well plates homogeneous mixing and pre-reaction at room temperature for 30
min. Next, 2.5 μL 4×Ultra ULightTM-JAK-1(Tyr1023) Peptide (200 nM)/ATP (40 μM) was
added to the corresponding wells of a 384-well plate. Negative control: 2.5 μL/well 4×substrate/ATP mixture and 7.5 μL 1×kinase assay buffer in 384-well plate well. Positive control:
μL/well 2×VEGFR-2 kinase solution was added to the 384-well plate, The final concentration of DMSO in the mixing system was 4%. After incubation at room temperature and dark for 60 min, 5 μL 4×stop solution was added to corresponding wells to react for 5 min and then 5 μL 4×detection mix was added to the corresponding wells of a 384-well plate. The mixture was centrifugally mixed and stayed for 60 min at room temperature for color development. The plate
was read using an Envision plate reader. The inhibition rate (%) = (positive well reading-
compound well reading)/(positive well reading-negative well reading)×100. The corresponding IC50 values were calculated using GraphPad Prism 5.0.

SMILES	IC50 (HT-29 (colon cancer))	IC50 (EGFR)	EGFR inhibitory potency relative to erlotinib (EGFR)	Caspase-8 Conc (caspase-8)	Caspase-8 Fold change (caspase-8)	IC50 [1]	Selectivity index (SI), A-549 [2]	Selectivity index (SI), HT-29 [2]	Selectivity index (SI), MCF-7 [2]	Selectivity index (SI), Panc-1 [2]	p53 (p53)	Potency relative to erlotinib, the other three cell lines ([3]; A-549, Panc-1, HT-29, greater potency than erlotinib)	GI50 [3]	IC50 (MCF-7 (breast cancer))	Potency relative to erlotinib, MCF-7 (MCF-7 (breast cancer); more potent than erlotinib)	Caspase-9 Conc (caspase-9)	Caspase-9 Fold change (caspase-9)	Caspase-3 Conc (caspase-3)	Caspase-3 Fold change (caspase-3)	IC50 (VEGFR-2)
COc1ccc(-c2nc(SCc3nc(-c4ccc(Cl)cc4)no3)[nH]c(=O)c2C#N)cc1 [Compound 10k, 2-(((3-(4-Chlorophenyl)-1,2,4-oxadiazol-5-yl)methyl)thio)-4-(4-methoxyphenyl)-6-oxo-1,6-dihydropyrimidine-5-carbonitrile]	23 ± 1 nM	57 ± 3 nM	1.4 fold	2.50 ± 0.20 ng/mL	25 fold and 25.00 fold	> 200 nM	> 8.0	> 8.0	> 10.0	> 9.0	330 ± 2 pg/mL	1.3 fold	22 nM	20 ± 1 nM	twice as potent	24 ± 1 ng/mL	24 fold	590 ± 5 pg/mL	9 fold and 9.00 fold	21 ± 1 nM
COc1ccc(-c2noc(CSc3nc(-c4ccc(OC)cc4)c(C#N)c(=O)[nH]3)n2)cc1 [Compound 10l, 2-(((3-(4-Methoxyphenyl)-1,2,4-oxadiazol-5-yl)methyl)thio)-4-(4-methoxyphenyl)-6-oxo-1,6-dihydropyrimidine-5-carbonitrile]	28 ± 1 nM	61 ± 4 nM	1.3 fold	2.00 ± 0.10 ng/mL	20 fold and 20.00 fold	> 200 nM	> 7.0	> 7.0	> 9.0	> 7.0	285 ± 2 pg/mL		26 nM	22 ± 1 nM		22 ± 1 ng/mL	22 fold	530 ± 4 pg/mL	8 fold and 8.00 fold	26 ± 1 nM

— paper PMC12530851, “Design, synthesis, and apoptotic antiproliferative activity of novel dihydropyrimidine-5-carbonitrile/1,2,4-oxadiazole hybrids as dual EGFR/VEGFR-2 inhibitors endowed with antioxidant activity” (RSC Advances, 2025)
